Assay results: US7084166B2, “Bis-heterocyclic compounds with antitumour and chemosensitising activity” (Sigma-Tau Industrie Farmaceutichee Riunite S.p.A., priority 2000, dated 2006)

Key:
Format in all cases: cell-based
[1] = tested on: MCF-7-Dx (human mammary carcinoma); test: Cytotoxicity test on resistant tumour cell lines, tested compound alone; conditions: Homo sapiens, MCF7/DX, 24 h incubation, survival after 48 h; ± SD
Description: (§1) This test was used to evaluate the survival of human cell lines resistant to doxorubicin (about 100 times) and cross-resistant to daunorubicin, actinomycin D, mitoxantrone, vincristine, vinblastin, taxol, colchicine, and etoposide.
(§2) The following cell lines were used: MCF-7-Dx (human mammary carcinoma), LoVo-Dx (human colon adenocarcinoma), MES-SA Dx (human uterine sarcoma).
(§3) Before using the association doxorubicin-tested compound, the cytotoxicity of the cells was evaluated with the tested compound (alone) as follows: the cells were incubated with the compound, at scalar concentrations (500 μM÷0.97 μM), for 24 hours; the compound was then removed and cell survival was evaluated after 48 hours with the above-mentioned sulforodamine B test. The antiproliferative activity of the compounds was evaluated in terms of IC50 (concentration of the compound that inhibits 50% of cell survival) processed with the above-mentioned curve-fitting program.

[2] = tested on: MES-SA Dx (human uterine sarcoma); test: as above; conditions: Homo sapiens, MES-SA Dx; 24 h incubation, survival after 48 h; ± SD
Description: as §1, §2, §3

[3] = tested on: LoVo-Dx (human colon adenocarcinoma); test: as above; conditions: Homo sapiens, LoVo/DX; 24 h incubation, survival after 48 h; ± SD
Description: as §1, §2, §3

[4] = tested on: HL60 cells (acute promyelocytic leukaemia); test: Cell differentiation by reduction of nitroblue tetrazolium (NBT), with suboptimal ATRA; conditions: combined with suboptimal doses of ATRA
Description: (§4) The second line used was the HL60 cell line which responds to ATRA (but is less sensitive than the NB4 cell line).
(§5) The HL60 and NB4 cells were seeded at a density of 150,000 cells/ml in RPMI 1640 medium containing 10% foetal calf serum, and were treated with the tested compounds in the presence and absence of suboptimal doses of ATRA (5–10 nM for NB4 and 0.5 μM for HL60, respectively) in the dark, and returned to the incubator for 3 days without ever replacing the culture medium.
(§6) To analyse the differentiative effect of the tested compounds vs ATRA, on the third day of treatment 500,000 viable cells were harvested from each sample, centrifuged for 10 minutes at 1.000 rpm and resuspended in 1 ml of RPMI 1640 medium containing 10% foetal calf serum, 1 mg/ml of nitroblue tetrazolium (NBT) and 100 ng of PMA (phorbol 12-myristate 13-acetate).
(§7) The cells thus resuspended were incubated in the dark at 37° C. for 60 minutes.
(§8) At the end of the incubation, the cell suspension was centrifuged for 10 minutes at 10,000 rpm; the pellet obtained was then resuspended in 1 ml of PBS containing 10% Triton X-100 and sonicated to lysis.
(§9) Spectrophotometric readings of the samples were then taken at a wavelength of 540 nm: samples containing differentiated cells shifted towards a violet colour, whereas control samples and/or samples with non-differentiated cells were colourless or, at any rate, much less intensely coloured.
(§10) The AC50 (Activating Concentration) is the concentration at which the tested compound induces 50% of cell differentiation.
(§11) Fold Induction is the increase in the differentiation value of the cell sample treated with the tested compound +ATRA vs the value of the cell sample treated with ATRA alone. This value provides an indication of the ability (potency) of the tested compound to enhance ATRA induced cell differentiation.

[5] = tested on: MCF-7 (human mammary carcinoma); test: Cytotoxicity test on sensitive tumour cell lines (sulforodamine B test); conditions: Homo sapiens, MCF7; 24 h incubation, survival after 48 h; ± S.D.; read-out: antiproliferative activity IC50, MCF-7
Description: (§12) This test was used to evaluate the survival of the human cell lines MCF-7 (human mammary carcinoma), LoVo (human colon adenocarcinoma), and MES-SA (human uterine sarcoma). The tumour cells were incubated with the compound, at scalar concentrations, (500 μM÷0.97 μM) for 24 hours; the compound was then removed and cell survival was evaluated after 48 hours using the sulforodamine B test (J. Natl. Cancer Inst. 82, 1107–1112). The antiproliferative activity of the compounds was evaluated in terms of the IC50 (concentration of the molecule that inhibits 50% of cell survival) processed with a curve-fitting program (Am. J. Physiol. 1978., 235, E97–E102) and expressed as μM±S.D.

[6] = tested on: LoVo (human colon adenocarcinoma); test: as above; conditions: Homo sapiens, LoVo; 24 h incubation, survival after 48 h; ± S.D.; read-out: antiproliferative activity IC50, Lovo
Description: as §12

[7] = tested on: MES-SA (human uterine sarcoma); test: as above; conditions: Homo sapiens, MES-SA; 24 h incubation, survival after 48 h; ± S.D.; read-out: antiproliferative activity IC50, Mes-Sa
Description: as §12

[8] = tested on: HL60 cells (acute promyelocytic leukaemia); test: Flow cytofluorimetric analysis of cell cycle; conditions: for G0/G1 / G2/M / S: day 3
Description: as §4, §5
To assess the effect of the tested compounds on the various phases of the cell cycle, on the third day of treatment 500,000 cells were harvested, centrifuged at 1,000 rpm for 10 minutes, washed twice in PBS w/o (PBS without calcium and magnesium) and fixed in a solution of 50% PBS w/o+50% methanol/acetone (1:4 v/v) for at least 1 hour; the cells were then centrifuged as described, washed in PBS w/o and centrifuged again.
200 μl of propidium iodide 100 μg/ml and 200 μl of RNase 150 kU/mg were then added to the cell pellet.
After a 30-min incubation in the dark at room temperature, the samples were analysed by flow cytofluirometry.

[9] = tested on: NB4 cells (acute promyelocytic leukaemia); test: Cell differentiation by reduction of nitroblue tetrazolium (NBT), with suboptimal ATRA; conditions: combined with suboptimal doses of ATRA, NBT
Description: The first line used was the NB4 cell line, bearing the t(15;17) chromosomal translocation which generates the fusion protein PML/RARα. This line is very sensitive to the differentiative action of pharmacological doses of ATRA (10^−7–10^−6 M).
as §5, §6, §7, §8, §9, §10, §11

Question: Which IC50 [1] does the source give for OCCCCC(c1c[nH]c2cc3c(cc12)OCO3)c1c[nH]c2cc3c(cc12)OCO3 [ST 1422, 5-hydroxy-1,1-di-(5,6-methylenedioxy-indol-3-yl)-pentane] here?
Answer: Its IC50 is 40.1 ± 1.2 µM.

Question: What about the IC50 [2] of the same molecule?
Answer: Its IC50 is 73.3 ± 2.7 µM.

Question: What about the IC50 [3] of the same molecule?
Answer: Its IC50 is 22.3 ± 2.9 µM.

Question: And the AC50 ([4]; Homo sapiens, HL-60, 72 h, 3 days, read-out: AC50 (concentration at which the tested compound induces 50% of cell differentiation))?
Answer: Its AC50 is 13.6 ± 2.6 µM.

Question: What about the “fold induction (differentiation, compound + ATRA vs ATRA alone)” value [4] of the same molecule?
Answer: Its value is 2.2.

Question: What about the IC50 [5] of the same molecule?
Answer: Its IC50 is 43.1 ± 1.2 µM.

Question: And the IC50 [6]?
Answer: The IC50 was 23 ± 4.4 µM.

Question: And the IC50 [7]?
Answer: Its IC50 is 79.3 ± 7.8 µM.

Question: What about the G0/G1 ([8]; compound 1 μM + ATRA 0.5 μM) of the same molecule?
Answer: The G0/G1 was 66.8.

Question: And the G2/M ([8]; compound 1 μM + ATRA 0.5 μM)?
Answer: The G2/M was 11.0.

Question: What about the S ([8]; compound 1 μM + ATRA 0.5 μM) of the same molecule?
Answer: The S was 22.2.

Question: What about the G0/G1 ([8]; compound 5 μM + ATRA 0.5 μM) of the same molecule?
Answer: Its G0/G1 is 65.1.

Question: And the G2/M ([8]; compound 5 μM + ATRA 0.5 μM)?
Answer: Its G2/M is 11.4.

Question: And the S ([8]; compound 5 μM + ATRA 0.5 μM)?
Answer: Its S is 23.5.

Question: And the G0/G1 ([8]; compound 10 μM + ATRA 0.5 μM)?
Answer: The G0/G1 was 62.5.

Question: And the G2/M ([8]; compound 10 μM + ATRA 0.5 μM)?
Answer: Its G2/M is 12.5.

Question: And the S ([8]; compound 10 μM + ATRA 0.5 μM)?
Answer: The S was 25.0.

Question: What about the G0/G1 ([8]; compound 50 μM + ATRA 0.5 μM) of the same molecule?
Answer: The G0/G1 was 75.7.

Question: And the G2/M ([8]; compound 50 μM + ATRA 0.5 μM)?
Answer: The G2/M was 13.8.

Question: What about the S ([8]; compound 50 μM + ATRA 0.5 μM) of the same molecule?
Answer: The S was 10.5.

Question: And the “effect of the compound alone on induction of apoptosis (in words)” value ([8]; compound alone)?
Answer: Its value is “showed no effect on the induction of apoptosis”.

Question: What about the G0/G1 ([8]; compound alone 1 μM) of the same molecule?
Answer: Its G0/G1 is 56.2.

Question: And the G2/M ([8]; compound alone 1 μM)?
Answer: Its G2/M is 10.0.

Question: And the S ([8]; compound alone 1 μM)?
Answer: The S was 33.8.

Question: What about the G0/G1 ([8]; compound alone 5 μM) of the same molecule?
Answer: The G0/G1 was 57.6.

Question: And the G2/M ([8]; compound alone 5 μM)?
Answer: The G2/M was 10.4.

Question: And the S ([8]; compound alone 5 μM)?
Answer: Its S is 32.0.

Question: What about the G0/G1 ([8]; compound alone 10 μM) of the same molecule?
Answer: The G0/G1 was 57.8.

Question: And the G2/M ([8]; compound alone 10 μM)?
Answer: Its G2/M is 10.5.

Question: What about the S ([8]; compound alone 10 μM) of the same molecule?
Answer: The S was 31.7.

Question: What about the G0/G1 ([8]; compound alone 50 μM) of the same molecule?
Answer: The G0/G1 was 65.8.

Question: What about the G2/M ([8]; compound alone 50 μM) of the same molecule?
Answer: Its G2/M is 16.4.

Question: And the S ([8]; compound alone 50 μM)?
Answer: Its S is 17.8.

Question: And the AC50 ([9]; Homo sapiens, NB-4, 72 h, 3 days, read-out: AC50 (concentration at which the tested compound induces 50% of cell differentiation))?
Answer: The AC50 was 9.8 ± 0.1 µM.

Question: What about the “fold induction (differentiation, compound + ATRA vs ATRA alone)” value [9] of the same molecule?
Answer: Its value is 1.85.
